In US20240374613A1, “BIOACTIVE MOLECULES FOR USE IN TREATING INSULIN RESISTANCE AND/OR RESTORING GLUCOSE HOMEOSTASIS” (PALTECH, priority 2021, published 2024):

What was measured:
[1] = DHT infusion 10 mg/24 H, mean ± SD, N=5
Description: (§1) The method was evaluated on 15 miniature pigs aged 5 years old (INRAE, UEPR, Saint-Gilles, France) and rendered insulin resistant after 3-4 months high fat high sucrose dict ingestion in excess according to already published data (Malbert et al., 2017b). The diet supplied 4024 kcal per kg of feed and was presented twice daily so that the animals could eat up to 150% of the recommended caloric intake (288 kcal/kg BW^0.75).
(§2) Once obese and insulin resistant, the animals were distributed into three groups of equal size (n=5 animals). One group served as control and was submitted only to a dummy implantation procedure including the initial GLP-1r PET imaging sequence using [68Ga]Ga-DO3A-VS-Cys40-Exendin-4. The second group was implanted during a laparoscopic procedure with a silicon catheter (2 mm OD) with its tip located at the portal sensor close to the minimum GLP-1r expression area according to the procedure described in 3.3. The terminal part of the catheter was bend at 90° to enter the periportal area. The catheter was secured at the entrance of the periportal cavity using a dacron surgical mesh (Biomesh P1, Cousin Bioserv Paris) glued to the silicon rubber prior to the implantation. During the implantation, the surgical mesh was glued to the outer layer of the portal vein using a surgical glue dispenser Glubran 2 and Glutack Cousin Bioserv Paris). The opposite tip of the catheter exited between the shoulder of the animal and was connected to an elastomeric pump. The pump (Easypump, II, BBraun) delivered 2 mL per hour of a solution of dihydrotestosterone (Sigma, Paris) in sterile water/DMSO (100:5 V/V) so that 10 mg of dihydrotestosterone was infused daily. The amount of the active molecule was irrespective of the body weight (BW). The pump was located in a lateral pocket of a jacket Whose size was adjusted for obese Yucantan minipigs (Lomir, Canada) and wore by the animal for the duration of the experiment. The third group was implanted during a laparoscopic procedure with an implant delivering 100 μg of dihydrostestoterone daily (Belma Technologies, Belgium) irrespective of the weight of the animal. The implant was inserted in the periportal area and the insertion hole achieved on the mesenteric layer for insertion was closed by a patch of surgical mesh glued directly on the meso using a procedure similar that described above. The anesthesia and surgical approach used for laparoscopy were identical those already described by Malbert et al. (Malbert et al., 2017b).
The protocol was described in FIG. 5 and consisted of two periods; one during which an obese insulin resistant status is achieved followed by a one-month post-surgery period during which DHT was slowly release according to the method of delivery described above. […]

[2] = Description: as §1, §2
The protocol was described in FIG. 5 and consisted of two periods; one during which an obese insulin resistant status is achieved followed by a one-month post-surgery period during which DHT was slowly release according to the method of delivery described above. For control and implant groups only, the experimental period was also extended for an additional month to evaluate the capacity of the method to achieve a sustained effect on glucose metabolism. This extended period was not achievable on catheter implanted animals due to ethical constraints. A one-week recovery period is inserted in the protocol after the initial PET GLP-1r scan and after the surgery. The data acquired during these periods were discarded from further analysis.
Distribution of GLP-1r along the portal vein and within the abdominal organs was obtained during an initial PET scan after the administration of 25 to 40 MBq [68Ga]Ga-DO3A-VS-Cys40-Exendin-4 according to the above section 3 of the examples. The portal area of low GLP-1r expression was identified and used for insertion of either the catheter tip or the DHT implant according to the above section 3.3 relating to laparoscopic access. The anesthesia and overall procedure for imaging is identical that described by Malbert et al (Malbert et al., 2020b). The same PET scan procedure was repeated one month after the surgical procedure allowing to compare between groups and within subjects of the same group the changes in GLP-1r distribution.

GLP-1r = conditions: DHT infusion 10 mg daily, one month after surgery
Description: as §1
Once obese and insulin resistant, the animals were distributed into three groups of equal size (n=5 animals). One group served as control and was submitted only to a dummy implantation procedure including the initial GLP-1r PET imaging sequence using [68Ga]Ga-DO3A-VS-Cys40-Exendin-4. The second group was implanted during a laparoscopic procedure with a silicon catheter (2 mm OD) with its tip located at the portal sensor close to the minimum GLP-1r expression area according to the procedure described in 3.3. The terminal part of the catheter was bend at 90° to enter the periportal area. The catheter was secured at the entrance of the periportal cavity using a dacron surgical mesh (Biomesh P1, Cousin Bioserv Paris) glued to the silicon rubber prior to the implantation. During the implantation, the surgical mesh was glued to the outer layer of the portal vein using a surgical glue dispenser Glubran 2 and Glutack Cousin Bioserv Paris). […]

muscle protein synthesis = conditions: effect in muscle protein synthesis; in the form of gel applied cutaneous; cited from earlier work
[3] = periportal catheter, first 30 days after surgery
[4] = 30 days after the implantation surgery
[5] = DHT infusion 10 mg/24 H, periportal catheter, first 30 days after surgery, mean ± SD, N=5
[6] = DHT infusion 10 mg/24 H, 30 days after the implantation surgery, mean ± SD, N=5

C[C@]12CCC(=O)C[C@@H]1CC[C@@H]1[C@@H]2CC[C@]2(C)[C@@H](O)CC[C@@H]12 [DHT infusion, dihydrotestosterone]
Body weight [1, 3]: 80.8 ± 2.0 kg | Daily ingestion [1, 3]: 8.6 ± 0.03 g/kg · day | Basal metabolic rate [1, 4]: 0.0079 ± 0.0007 kcal/min/kg | Fasting glucose oxidation rate [1, 4]: 1.8 ± 0.10 mg/min · kg | Abdominal fat [2, 5]: 38.1 ± 0.7!^ % of BW | Fat [2, 5]: 36.8 ± 0.5 % of BW | Liver to spleen ratio [2, 5]: 1.1 ± 0.02 | Mean arterial pressure [2, 5]: 79 ± 3.1 mmHg | Muscle [2, 5]: 6.5 ± 1.0 % of BW | Pulse rate [2, 5]: 104 ± 8.7 min⁻¹ | Systolic blood pressure [2, 5]: 55 ± 2.1 mmHg | Clamp plasma insulin [2, 6]: 501 ± 14.1 μU/mL | Fasting plasma glucose [2, 6]: 4.2 ± 0.23 mmol/L | Fasting plasma insulin [2, 6]: 2.1 ± 0.21 μU/mL | Mean plasma glucose at clamp plateau [2, 6]: 4.2 ± 0.36 mmol/L | Insulin sensitivity ([2]; DHT infusion 10 mg/24 H, euglycemic hyperinsulinemic clamp plateau, 30 days after the implantation surgery, mean ± SD, N=5): 6.8 ± 0.20 dL/kg · min/μMU/mL*1E−3 | Portal GLP-1r binding potential/volume of distribution compared to control (GLP-1r): more than doubled | Non portal (pancreatic) GLP-1r binding (GLP-1r; ns vs control): 4.8±0.41

C[C@]12CCC(=O)C[C@@H]1CC[C@@H]1[C@@H]2CC[C@]2(C)[C@@H](O)CC[C@@H]12 [DHT, dihydrotestosterone]
Circulating insulin as fraction of the insulinemia measured in control group ([2]; DHT treated animals (both groups), fasting, 30 days after surgery): 1/3 | Whole-body insulin sensitivity change compared to control ([2]; euglycemic hyperinsulinemic clamp, irrespective of the DHT group): one third increase | ED50 (muscle protein synthesis): 20 mg daily
